# Tests used:
# [1] = test system: VLDL; details: peptide interacting with VLDL; cited from earlier work
# [2] = test system: Apo E null mice; assay: Study One: plasma markers of oxidative stress (ROS, PON activity) in Apo E null mice; type: in vivo
# Description: (§1) The mice were fed a Western diet for 6 weeks to elevate cholesterol. The animals were then switched to a chow diet for two weeks after which they were treated with peptide or saline for 4 weeks. Treatment was then withdrawn for 4 weeks while the animals remained on a chow diet. After the 4 week post treatment phase, the mice were euthanized and tissue dissection and sample collection was performed.
# (§2) Blood was drawn after 4 weeks of treatment at week 26 and analyzed for cholesterol. […] However, Apo E mimetic treatment did improve plasma marker of oxidative stress, such as ROS and PON activity. […] Because ROS have been implicated in the pathogenesis of atherosclerosis, the decrease in ROS by treatment with an Apo E mimetic is beneficial.
# The PON gene family has anti-atherosclerotic effects, such as preventing oxidation of LDLs. Thus, the increase in PON activity in hE18A treated mice is beneficial in the atherosclerosis animal model.
# (§3) The mice were euthanized at week 30, which is four weeks post treatment with Apo E mimetic.
# [3] = test system: Apo E −/− mice; assay: Study Two: plasma and liver lipids in Apo E -/- mice; type: in vivo; details: four weeks after cessation of treatment
# Description: (§4) The mice were fed a lard diet for seven weeks and then were switched to a chow diet for four weeks. The mice were treated two times a week for four weeks and then treatment was withdrawn for four weeks. Termination 1 represents the time point immediately following termination of the Apo E mimetic treatment. Termination 2 represents the time point immediately following the four weeks of treatment withdrawal. Lipids were analyzed in the plasma (cholesterol, triglycerides) and in the liver (cholesterol esters, unesterified cholesterol, triglycerides).
# [4] = test system: Apo E −/− mice; assay: Study Two: plaques in the aorta of Apo E -/- mice; type: in vivo; details: 5 mg/kg
# Description: as §4
# [5] = test system: cells; details: peptide-associated VLDL, absence of apoE; cited from earlier work
# [6] = test system: Apo E null mice; assay: Study One: plasma cholesterol and triglycerides in Apo E null mice; type: in vivo
# Description: as §1, §2, §3
# [7] = test system: Apo E null mice; assay: Study One: atherosclerotic lesions (en face aorta, aortic sinus, macrophage coverage) in Apo E null mice; type: in vivo
# Description: as §1, §3
# [8] = test system: MEF 1 cells; details: MEF 1 cells with induced LDL receptors; cited from earlier work
# [9] = four weeks after the end of treatment
# [10] = 4 weeks post treatment (study termination)
substance,measurement,setting,value
"Ac-D-W-L-K-A-F-Y-D-K-V-A-E-K-L-K-E-A-F-NH2 (Ac-DWLKAFYDKVAEKLKEAF-NH2) [Ac-18A-NH2, control peptide, reference compound]",displacement of apo E from VLDL,[1],displacement of apo E from VLDL
"Ac-LRKLRKRLLRDWLKAFYDKVAEKLKEAF-NH2 [Ac-hE18A-NH2, end protected analog of hE-18A]",PON-1 levels in HDL fractions,"[2]; Apo E null mice, HDL fractions 29-32",dramatic increase
same,cholesterol levels,[3],about 650 mg/dl
same,decrease of atherosclerotic lesions in the thoracic aorta,[4],about 50%
same,reduction of lesions in the aortic arch,[4]; at the end of treatment,about 35%
same,enhancement of degradation of VLDL compared to VLDL alone,[5],three
same,enhancement of uptake of VLDL compared to VLDL alone,[5],six
same,displacement of apo E from VLDL,[1],displacement of apo E from VLDL
LRKLRKRLLRDWLKAFYDKVAEKLKEAF (ApoE mimetic) [hE18A],plasma cholesterol levels,"[6]; end of 4 weeks of treatment, compared to mR18L and saline",better in reducing plasma cholesterol levels
same,cholesterol levels,[6]; [9],not significantly different
same,PON-1 activity,"[2]; 4 weeks post treatment, over saline and mR18L",still increased
same,reactive oxygen species (ROS),"[2]; after 4 weeks of treatment, compared to saline",significant decrease
same,paraoxonase (PON) activity,"[2]; after 4 weeks of treatment, compared to saline and mR18L",significant increase
same,ROS levels,[2]; [9],not significantly different
same,atherosclerotic lesion area in the aortic sinus,[7]; [10],significantly decreased
same,macrophage coverage of the aortic sinus,[7]; [10],non-significant trend towards a decrease
same,atherosclerotic lesion area (en face aorta),"[7]; 4 weeks post treatment, compared to saline or mR18L",significantly reduced
LRKMRKRLMR-18A [Ac-mE-18A-NH2],enhancement of LDL internalization,[8],three
LRRLRRRLLR-18A [Ac-hE(R)-18A-NH2],enhancement of LDL internalization,[8],seven

# Source: patent publication US20160002315A1, “APOLIPOPROTEIN MIMETICS AND USES THEREOF” (UAB RESEARCH FOUNDATION, priority 2013, published 2016)
